These results are taken from ChEMBL document CHEMBL4699583 (J Med Chem, 2020).

Series [1] can be described thus: Kinetic solubility of compound in PBS at pH 7.4 incubated for 24 hrs under shaking condition by UPLC-MS analysis. The series is classed as physicochemical. Conditions: for Kinetic_solubility: buffer, pH 7.4, 24 h; call rule not given here.
Series [2] can be described thus: in vitro. Conditions: mouse, liver microsomes. (In general: Liver microsomes are vesicles of endoplasmic reticulum, rich in cytochrome P450 enzymes.)
Series [3] concerns the target DNA topoisomerase 2-alpha (Homo sapiens, UniProt P11388). Kind of series: Inhibition of recombinant human topoisomerase 2alpha using supercoiled pBR322 DNA as substrate incubated for 60 mins by ethidium bromide dye based agarose gel electrophoresis method.

Usually half-life stands for how long it takes for the measured level to halve. A lower half-life goes with fast loss.

DNA topoisomerase 2-alpha, sequence (P11388 whole entry): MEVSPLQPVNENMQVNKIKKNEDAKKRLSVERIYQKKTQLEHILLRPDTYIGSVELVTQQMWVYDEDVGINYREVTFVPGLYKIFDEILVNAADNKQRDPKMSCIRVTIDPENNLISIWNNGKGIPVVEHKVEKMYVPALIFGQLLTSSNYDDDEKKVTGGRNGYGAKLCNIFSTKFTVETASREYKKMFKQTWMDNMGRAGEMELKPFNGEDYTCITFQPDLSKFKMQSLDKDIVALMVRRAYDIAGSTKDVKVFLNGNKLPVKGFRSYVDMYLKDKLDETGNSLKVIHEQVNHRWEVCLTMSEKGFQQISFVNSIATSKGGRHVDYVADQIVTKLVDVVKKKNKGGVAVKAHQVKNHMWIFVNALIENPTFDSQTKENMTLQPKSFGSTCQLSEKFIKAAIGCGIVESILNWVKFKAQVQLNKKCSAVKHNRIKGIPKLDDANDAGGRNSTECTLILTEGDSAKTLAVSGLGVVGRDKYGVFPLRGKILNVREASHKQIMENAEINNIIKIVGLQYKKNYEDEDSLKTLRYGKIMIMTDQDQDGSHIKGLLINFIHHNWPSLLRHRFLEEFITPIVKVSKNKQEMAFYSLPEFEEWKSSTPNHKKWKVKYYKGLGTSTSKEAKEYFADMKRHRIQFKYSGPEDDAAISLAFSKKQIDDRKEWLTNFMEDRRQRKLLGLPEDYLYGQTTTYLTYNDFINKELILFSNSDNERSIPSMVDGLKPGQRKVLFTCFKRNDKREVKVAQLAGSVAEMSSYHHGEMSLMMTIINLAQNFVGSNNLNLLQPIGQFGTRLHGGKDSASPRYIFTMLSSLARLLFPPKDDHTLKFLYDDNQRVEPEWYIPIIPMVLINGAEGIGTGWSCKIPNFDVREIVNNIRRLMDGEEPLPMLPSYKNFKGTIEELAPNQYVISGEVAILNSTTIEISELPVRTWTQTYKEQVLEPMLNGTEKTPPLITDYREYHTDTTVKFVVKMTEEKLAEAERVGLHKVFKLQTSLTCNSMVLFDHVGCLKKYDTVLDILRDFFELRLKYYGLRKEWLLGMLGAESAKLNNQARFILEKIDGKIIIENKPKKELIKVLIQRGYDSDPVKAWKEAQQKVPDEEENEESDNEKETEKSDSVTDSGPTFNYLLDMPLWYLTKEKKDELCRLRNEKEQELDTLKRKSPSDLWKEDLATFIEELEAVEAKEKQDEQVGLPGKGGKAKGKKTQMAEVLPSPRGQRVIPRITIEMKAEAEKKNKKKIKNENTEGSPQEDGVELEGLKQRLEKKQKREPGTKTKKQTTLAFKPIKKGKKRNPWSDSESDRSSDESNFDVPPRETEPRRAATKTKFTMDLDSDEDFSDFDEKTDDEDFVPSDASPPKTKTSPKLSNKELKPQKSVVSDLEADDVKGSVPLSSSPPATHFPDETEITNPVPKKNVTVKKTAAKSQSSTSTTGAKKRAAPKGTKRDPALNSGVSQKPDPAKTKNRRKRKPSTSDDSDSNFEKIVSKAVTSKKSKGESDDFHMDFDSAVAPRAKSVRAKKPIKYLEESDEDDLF

Regarding `NC1CCc2nc(-c3ccncc3)nc(Nc3cccc(F)c3)c2C1` (racemic), the Kinetic_solubility in series [1] amounted to 126 µM.

`COc1cccc(Nc2nc(-c3ccncc3)nc3c2CC(N)CC3)c1` (centres undefined) displayed a Kinetic_solubility in series [1] greater than 250 µM. Moreover, in series [2], the half-life at 1 h, 4.6 µM is greater than 1 h.

Take `CN(C)c1cccc(Nc2nc(-c3ccncc3)nc3c2CC(N)CC3)c1` (centres undefined): the IC50 result in series [3] is “Not Active”.

In the case of `CN(c1cccc(F)c1)c1nc(-c2ccncc2)nc2c1CC(N)CC2` (centres undefined), the IC50 result in series [3] is “Not Active”.

As for `NC1CCc2nc(-c3ccncc3)nc(Nc3ccccc3F)c2C1` (centres undefined), in series [3], the IC50 result is given as “Not Active”.

For the molecule `NC1CCc2nc(-c3ccncc3)nc(Nc3ccccc3)c2C1` (centres undefined), in series [3], the IC50 entry is reported as “Not Active”.

Regarding `COc1ccc(Nc2nc(-c3ccncc3)nc3c2CC(N)CC3)cc1` (centres undefined), the IC50 result in series [3] is given as “Not Active”.

`Fc1cccc(Nc2nc(-c3ccncc3)nc3c2CCCC3)c1`: the IC50 result in series [3] is on record as “Not Active”.

As for `NC1CCc2nc(-c3ccccn3)nc(Nc3cccc(F)c3)c2C1` (centres undefined), the IC50 result in series [3] is “Not Active”.

On to `NC1CCc2nc(-c3cccnc3)nc(Nc3cccc(F)c3)c2C1` (centres undefined), for which the solubility kinetic at 24 h in series [1] (PBS, pH 7.4, read-out: Kinetic_solubility) was greater than 250 µM. In addition, the half-life at 1 h, 4.6 µM in series [2] was greater than 1 h.

`NC1CCc2nc(-c3ccncc3)nc(Nc3ccc(F)cc3)c2C1` (centres undefined) showed a Kinetic_solubility in series [1] greater than 250 µM. Also, the half-life at 1 h, 4.6 µM in series [2] is greater than 1 h.
